Here are results for six compounds from PMC9216541, “Design and synthesis of Nrf2-derived hydrocarbon stapled peptides for the disruption of protein-DNA-interactions” (PLoS ONE, 2022).

Where a SMILES comes first, the peptide text is derived from it. Bridges are numbered along the chain shown (N, C = ends). [ ]: non-standard residue; d: D form. The star is where a group is joined. FITC = O=C1OC2(c3ccc(O)cc3Oc3cc(O)ccc32)c2ccc(NC(=S)*)cc21; R8 = C=CCCCCCC[C@@](C)(N)C(=O)O; R5 = C=CCCC[C@@](C)(N)C(=O)O; S5 = C=CCCC[C@](C)(N)C(=O)O; GABA = NCCCC(=O)O

In one data set the test system is living HeLa cells. Briefly: Cell permeability in living HeLa cells, fluorescence microscopy. The class given is cell-based. As for the experimental part: (§1) HeLa cells (ATCC CCL-2) were cultured in Dulbecco’s Modified Eagle Medium (DMEM) supplemented with 10% FBS (Pan Biotech), 2 mM L-glutamine, 100 U/ml penicillin and 100 μg/ml streptomycin at 37°C and 5% CO2.
To investigate the cell permeability of peptide 4, living HeLa cells were washed twice and incubated for 5 min with DPBS + Mg/Ca, ([…]) in a CO2 incubator. Cells were subsequently incubated in the presence of 10 μM of peptide 4 in DPBS + Mg/Cl for 5 min, followed by two washes with DPBS + Mg/Cl and final addition of HEPES-buffered imaging medium containing 0.5 μM propidium iodide.
(§2) Imaging was performed using an Olympus IX81 microscope with 20x and 60x UPLSAPO objectives and standard fluorescence filter sets.

Data set [1] in a line: CD measurements, helical fraction from ellipticity at 222 nm. The following applies: peptide 20 μM in water, calculated from [θ]obs at 222 nm by established methods (ref 30). The format is physicochemical. As for the experimental part:
CD measurements were carried out on a JASCO J-715 spectrometer using water as the solvent for all measurements. The peptides were solved in water to a concentration of 20 μM. The linear peptide 5 was used as a control compound. The helical fraction for peptides 1–5 was calculated from the observed ellipticity [θ]obs at 222 nm using established methods.

Data set [2] deals with 6FAM-labeled MARE23 sequence (Nrf2:sMaf binding dsDNA). Briefly: Fluorescence polarization assay with 6FAM-labeled MARE23 dsDNA. The following applies: FP, 10 nM 6FAM-MARE23 dsDNA, peptide 25 μM - 6.1 nM, 50 mM Tris/HCl pH 7.5, 100 mM NaCl, 60 min at room temperature; quadruplicates, three independent replicates, four parameter logistic fit. The procedure:
For DNA hybridization, equimolar amounts of fluorescein- or 6FAM-labeled sense and unlabeled antisense oligonucleotides were mixed in 1X annealing buffer (10 mM Tris pH 7.5, 100 mM NaCl, 1 mM EDTA) to yield a final concentration of 20 μM of dsDNA. Subsequently, mixtures were heated to 95°C for 10 min followed by cooling to 20°C at a rate of 1°C per minute. Afterwards, dsDNA probes were diluted to 10 nm in FP assay buffer (50 mM Tris/HCl pH 7.5, 100 mM NaCl, 2 mM MgCl2, 0.5 mM EDTA, 10 μg/mL BSA, 0.1 mM DTT, 0.01% Tween-20) and mixed with serial dilutions of peptides 1–6 (25 μM—6.1 nm), that were generated with the Echo 520 liquid handler (Labcyte Inc.), in a total volume of 10.2 μL per well in black 384-well small volume microplates (Greiner Bio-One). The microplates were shaken at 1500 rpm for 30 s, centrifuged at 200 x g for 60 s and subsequently incubated for 60 min in a humidified, dark chamber at room temperature. Finally, the fluorescence polarization was analyzed on an Infinite® M1000 microplate reader (Tecan) using the appropriate settings for fluorescein/6FAM, i.e. an excitation wavelength of 470 ± 2.5 nm and an emission wavelength of 520 ± 7.5 nm.
Each concentration was analyzed in quadruplicates and resulting mean fluorescence polarization and standard deviation was fit to a four parameter logistic model with Origin (OriginLab, Northampton, MA) using the following equation: y=A1−A2/1+x/x0^p+A2
Each experiment was performed in three independent replicates.
Figure S5. Fluorescence polarization binding studies of stapled peptides 1-6 towards target DNA sequence MARE23 (5’-[6FAM][…]-3’ and 5’-[…]-3’) (A, C) and control DNA sequence MARE23_scrambled (5’-[6FAM][…]-3’ and 5’-GAGTAA-TAGCTATGACGATATTCCG-3’) (B and D, respectively). The obtained polarization values were either baseline-corrected (A, B) or corrected for the changes in fluorescence intensity in the free/bound state of the fluorescently labeled dsDNA probes (C, D).^[1] The resulting dissociation constants are listed in the inset tables in the respective panels. […]

Data set [3] has as its system dsDNA probe (MARE23, MARE23_scrambled, randomized sequence). The experiment in a line: Electrophoretic mobility shift assay. The format is binding. The conditions noted are these: 1 pmol dsDNA probe with excess of peptide, 30 min at room temperature, native 15% TBE polyacrylamide gel. As for the experimental part: DNA hybridization was performed as described above. Afterwards, 1 pmol of the dsDNA probe was incubated with the respective excess of peptide in 1X assay buffer (10 mM Tris pH 7.5, 100 mM KCl, 2 mM MgCl2, 0.5 mM EDTA, 10 μg/mL BSA, 0.1 mM DTT, 2.5% glycerol) in a final volume of 10 μL and incubated for 30 min at room temperature. Prior to gel electrophoresis, samples were mixed with 2 μL of 6X loading buffer (60 mM Tris pH 7.5, 15% Ficoll 400) and the reaction mixtures were then loaded onto hand-cast, native 15% TBE polyacrylamide gels. Separation was performed for 45 min at a current of 20 mA per gel in a cold room at 4°C and the gels were analyzed on a Typhoon FLA 9500 laser scanner (GE Healthcare) using the 473 nm laser for excitation and a 510 nm long-pass filter (LPB (510LP)) for emission of fluorescein and FAM, respectively.
[picture] Figure S6. Electrophoretic mobility shift assays of peptides 4 and 5 with MARE23 (5’-[6FAM][…]-3’ and 5’-[…]-TTCCG-3’).
Figure S7. Electrophoretic mobility shift assays of peptides 4 and 5 with MARE23_scrambled (5’-[6FAM][…]-3’ and 5’-[…]-TTCCG-3’).
Figure S8. Electrophoretic mobility shift assays of peptides 4 and 5 with DNA with a randomized sequence (5’-[6FAM][…]-3’ and 5’-GAG-[…]-3’).

Data set [4] deals with peptide 1 (stapled Nrf2-derived) (UniProt Q16236). The experiment in a line: fluorescence polarization. The conditions noted are these: FP: 50 mM Tris/HCl pH 7.5, 100 mM NaCl, 2 mM MgCl2, 0.5 mM EDTA, 10 ug/mL BSA, 0.1 mM DTT, 0.01% Tween-20, 10 nM DNA, 60 min RT; EMSA: 10 mM Tris pH 7.5, 100 mM.
The target of data set [5] is peptide 4 (stapled Nrf2-derived) (UniProt Q16236). The experiment in a line: fluorescence polarization. The conditions noted are these: FP: 50 mM Tris/HCl pH 7.5, 100 mM NaCl, 2 mM MgCl2, 0.5 mM EDTA, 10 ug/mL BSA, 0.1 mM DTT, 0.01% Tween-20, 10 nM DNA, 60 min RT; EMSA: 10 mM Tris pH 7.5, 100 mM.
Another data set concerns peptide 6 (scrambled). Briefly: fluorescence polarization. The conditions noted are these: FP: 50 mM Tris/HCl pH 7.5, 100 mM NaCl, 2 mM MgCl2, 0.5 mM EDTA, 10 ug/mL BSA, 0.1 mM DTT, 0.01% Tween-20, 10 nM DNA, 60 min RT; EMSA: 10 mM Tris pH 7.5, 100 mM.
Data set [6] concerns the target peptide 2 (stapled Nrf2-derived) (UniProt Q16236). Briefly: fluorescence polarization. The following applies: FP: 50 mM Tris/HCl pH 7.5, 100 mM NaCl, 2 mM MgCl2, 0.5 mM EDTA, 10 ug/mL BSA, 0.1 mM DTT, 0.01% Tween-20, 10 nM DNA, 60 min RT; EMSA: 10 mM Tris pH 7.5, 100 mM.
In data set [7] the target is peptide 5 (linear Nrf2-derived) (UniProt Q16236). Briefly: fluorescence polarization. The following applies: FP: 50 mM Tris/HCl pH 7.5, 100 mM NaCl, 2 mM MgCl2, 0.5 mM EDTA, 10 ug/mL BSA, 0.1 mM DTT, 0.01% Tween-20, 10 nM DNA, 60 min RT; EMSA: 10 mM Tris pH 7.5, 100 mM.
Data set [8] deals with peptide 3 (stapled Nrf2-derived) (UniProt Q16236). Briefly: fluorescence polarization. The following applies: FP: 50 mM Tris/HCl pH 7.5, 100 mM NaCl, 2 mM MgCl2, 0.5 mM EDTA, 10 ug/mL BSA, 0.1 mM DTT, 0.01% Tween-20, 10 nM DNA, 60 min RT; EMSA: 10 mM Tris pH 7.5, 100 mM.
The test system of data set [9] is cellular DNA in fixed, permeabilized HeLa cells. The experiment in a line: Incubation with fixed, permeabilized HeLa cells, wide-field fluorescence microscopy. The class given is cell-based. The conditions noted are these: FITC-labeled peptide. The procedure:
as §1
For fixing and permeabilization, HeLa cells were incubated with pre-warmed 4% formaldehyde for 20 min at 37°C, followed by permeabilization with 0.25% Triton-X 100 for 20 min at room temperature. For the evaluation of the effect of proteases, cOmplete protease inhibitor mix (1X) 500 μl was added to the fixed cells for 30 min. Peptides were incubated at 1 μM for 3 h in the presence of the protease inhibitor mix, followed by 3 min incubation with 1 μM of the nucleic acid marker DAPI, then extensively washed with DPBS and subjected to wide-field imaging.
as §2

`CC[C@H](C)[C@H](NC(=O)CCCNC(=S)Nc1ccc2c(c1)C(=O)OC21c2ccc(O)cc2Oc2cc(O)ccc21)C(=O)N[C@@H](CCCNC(=N)N)C(=O)N[C@@H](CCCNC(=N)N)C(=O)N[C@@H](CCCNC(=N)N)C(=O)N[C@]1(C)CCCCCCC=CCCC[C@@](C)(C(=O)N[C@@H](CC(N)=O)C(=O)N[C@@H](CS)C(=O)N[C@@H](CCCNC(=N)N)C(=O)N[C@@H](CCCCN)C(=O)N[C@@H](CCCNC(=N)N)C(=O)N[C@@H](CCCCN)C(N)=O)NC(=O)[C@H](C)NC(=O)[C@H](C)NC(=O)[C@H](C(C)C)NC(=O)[C@H](CCCCN)NC(=O)[C@H](CC(N)=O)NC(=O)[C@H](CCCCN)NC1=O` [FITC-4] ({FITC-GABA}-IRRR[R8]KNKVAA[S5]NCRKRK-NH2; staple 5-12): in the data set with living HeLa cells (10 μM peptide in DPBS + Mg/Ca, 5 min, serum-free, washed, FITC fluorescence microscopy), the “membrane permeability in living cells” value is given as “high membrane permeability in living cells”. Besides, the “viability / membrane integrity of peptide-containing cells (propidium iodide)” value with living HeLa cells (10 μM peptide, 0.5 μM propidium iodide in imaging medium) is listed as “majority of peptide-containing cells were alive”.
On to `CC[C@H](C)[C@H](NC(C)=O)C(=O)N[C@@H](CCCNC(=N)N)C(=O)N[C@@H](CCCNC(=N)N)C(=O)N[C@@H](CCCNC(=N)N)C(=O)NCC(=O)N[C@@H](CCCCN)C(=O)N[C@@H](CC(N)=O)C(=O)N[C@@H](CCCCN)C(=O)N[C@]1(C)CCCC=CCCC[C@@](C)(C(=O)N[C@@H](CC(N)=O)C(=O)N[C@@H](CS)C(=O)N[C@@H](CCCNC(=N)N)C(=O)N[C@@H](CCCCN)C(=O)N[C@@H](CCCNC(=N)N)C(=O)N[C@@H](CCCCN)C(N)=O)NC(=O)[C@H](C)NC(=O)[C@H](C)NC1=O` [compound 3] (Ac-IRRRGKNK[R5]AA[S5]NCRKRK-NH2; staple 9-12), for which the “Helicity (calculated) / α-helical content” value in [1] was 36%. The compound also displayed a Kd in [2] of 1.5 ± 0.2 µM.
With `CC[C@H](C)[C@H](NC(C)=O)C(=O)N[C@@H](CCCNC(=N)N)C(=O)N[C@@H](CCCNC(=N)N)C(=O)N[C@@H](CCCNC(=N)N)C(=O)N[C@]1(C)CCCCCCC=CCCC[C@@](C)(C(=O)N[C@@H](CC(N)=O)C(=O)N[C@@H](CS)C(=O)N[C@@H](CCCNC(=N)N)C(=O)N[C@@H](CCCCN)C(=O)N[C@@H](CCCNC(=N)N)C(=O)N[C@@H](CCCCN)C(N)=O)NC(=O)[C@H](C)NC(=O)[C@H](C)NC(=O)[C@H](C(C)C)NC(=O)[C@H](CCCCN)NC(=O)[C@H](CC(N)=O)NC(=O)[C@H](CCCCN)NC1=O` [compound 4] (Ac-IRRR[R8]KNKVAA[S5]NCRKRK-NH2; staple 5-12), the “Helicity (calculated) / α-helical content” value in data set [1] is recorded as 18%. This compound also yielded a Kd in [2] of 1.2 ± 0.3 µM. Besides, the “mobility shift of DNA” value in data set [3] was “induce a mobility shift of DNA at a lower concentration than the unstapled peptide 5”.
Turning to “CGGAATCAATGACTCATTGTTACTC (double strand) [MARE23]”, the Kd is 1.6 µM in data set [4]; 1.2 µM in [5]; 8.1 µM in the data set on peptide 6 (scrambled); 3.9 µM in data set [6]; 7.9 µM in [7]; 1.5 µM in data set [8].
As for “IRRRGKNKVAAQNCRKRK [FITC-5, linear peptide 5 with N-terminal FITC-GABA- label]”, in [9] (fixed (4% formaldehyde) and permeabilized (0.25% Triton-X 100) HeLa cells, DAPI co-stain), the “enrichment in the nucleus” value is listed as “no enrichment in the nucleus could be observed”. In data set [9] (fixed and permeabilized HeLa cells, identical exposure times), the “amount of peptide detectable in cells” value is on record as “only small amounts”.
With “IRRRS5KNKS5AAQNCRKRK (sidechain bridge or staple) [compound 1, Nrf2-derived i,i+4 hydrocarbon stapled peptide (505/509), N-terminally acetylated, C-terminal amide]”, the “Helicity (calculated) / α-helical content” value in data set [1] was 20%. For the same compound, the Kd in [2] came out at 1.6 ± 0.04 µM.
